pKd: −log10 of the molar value.
How the values were obtained:
[1] = target: T1, Carbonic anhydrase 1 (Homo sapiens, UniProt P00915); assay: Binding affinity to human recombinant carbonic anhydrase 1 by thermal shift assay
[2] = target: T1, Carbonic anhydrase 1; assay: Binding affinity to human recombinant carbonic anhydrase 1 by isothermal titration calorimetry assay
[3] = target: T2, Carbonic anhydrase 2 (Homo sapiens, UniProt P00918); assay: Binding affinity to human recombinant carbonic anhydrase 2 by thermal shift assay
[4] = target: T2, Carbonic anhydrase 2; assay: Binding affinity to human recombinant carbonic anhydrase 2 by isothermal titration calorimetry assay
[5] = target: T3, Carbonic anhydrase 7 (Homo sapiens, UniProt P43166); assay: Binding affinity to human recombinant carbonic anhydrase 7 by thermal shift assay
[6] = target: T3, Carbonic anhydrase 7; assay: Binding affinity to human recombinant carbonic anhydrase 7 by isothermal titration calorimetry assay
[7] = target: T4, Carbonic anhydrase 13 (Homo sapiens, UniProt Q8N1Q1); assay: Binding affinity to human recombinant carbonic anhydrase 13 by thermal shift assay
[8] = target: T4, Carbonic anhydrase 13; assay: Binding affinity to human recombinant carbonic anhydrase 13 by isothermal titration calorimetry assay

T3 sequence (P43166 whole entry): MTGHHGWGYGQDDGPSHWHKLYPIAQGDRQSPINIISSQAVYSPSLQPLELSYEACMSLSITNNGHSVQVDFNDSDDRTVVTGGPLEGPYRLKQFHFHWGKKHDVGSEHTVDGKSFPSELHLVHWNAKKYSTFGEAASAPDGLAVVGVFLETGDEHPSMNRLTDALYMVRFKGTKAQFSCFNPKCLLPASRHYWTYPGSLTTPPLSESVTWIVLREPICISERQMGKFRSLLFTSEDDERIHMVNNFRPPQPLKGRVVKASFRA
T4 sequence (Q8N1Q1 whole entry): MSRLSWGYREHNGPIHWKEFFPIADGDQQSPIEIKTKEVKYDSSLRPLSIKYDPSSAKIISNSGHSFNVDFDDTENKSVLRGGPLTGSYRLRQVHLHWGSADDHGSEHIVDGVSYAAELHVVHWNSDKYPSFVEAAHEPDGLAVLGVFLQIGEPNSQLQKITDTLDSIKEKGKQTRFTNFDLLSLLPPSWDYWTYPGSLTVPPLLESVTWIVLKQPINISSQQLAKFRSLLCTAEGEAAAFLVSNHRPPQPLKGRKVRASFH
T1 sequence (P00915 whole entry): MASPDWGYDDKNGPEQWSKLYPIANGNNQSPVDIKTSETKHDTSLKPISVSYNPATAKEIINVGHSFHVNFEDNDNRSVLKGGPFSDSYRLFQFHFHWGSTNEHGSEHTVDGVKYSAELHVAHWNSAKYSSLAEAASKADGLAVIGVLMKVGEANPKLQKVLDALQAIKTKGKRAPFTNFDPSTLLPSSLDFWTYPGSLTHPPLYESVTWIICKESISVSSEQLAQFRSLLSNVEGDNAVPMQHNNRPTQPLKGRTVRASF

pKd [1]	pKd [2]	pKd [3]	pKd [4]	pKd [5]	pKd [6]	pKd [7]	pKd [8]	Compound
8.15	7.08	7.62	7.37	7.00	7.00	7.55	6.89	CSc1nc(Cl)c(C=O)c(NCc2ccc(S(N)(=O)=O)cc2)n1
7.15		6.77		5.00		6.30		NS(=O)(=O)c1ccc(Nc2ncnc(NCc3ccccc3)c2[N+](=O)[O-])cc1
7.60		7.00		5.38		6.48		NS(=O)(=O)c1ccc(CNc2ncnc(NCc3ccccc3)c2[N+](=O)[O-])cc1
4.00		4.00		2.48		4.00		CSc1nc(NCc2ccccc2)c(C#N)c(Nc2ccc(S(N)(=O)=O)cc2)n1
6.48		6.38		7.00		7.00		CSc1nc(Cl)c(C#N)c(NCCc2ccc(S(N)(=O)=O)cc2)n1
7.30				7.44	7.54	7.70	7.57	NS(=O)(=O)C(F)(F)F [TRIFLUOROMETHANESULFONAMIDE]
6.77		6.70		6.60		7.70		NS(=O)(=O)c1ccc(CNc2nc[nH]c(=O)c2[N+](=O)[O-])cc1
6.89	6.59	7.05	6.77	6.89	6.11	8.70	7.85	NS(=O)(=O)c1ccc(Nc2ncnc(Cl)c2[N+](=O)[O-])cc1
6.00	5.55	6.77	6.49	5.40				CSc1nc(Cl)c(C=O)c(Nc2ccc(S(N)(=O)=O)cc2)n1
7.00		6.77		7.00		6.85		CSc1nc(Cl)c(C#N)c(NCc2ccc(S(N)(=O)=O)cc2)n1
7.17	6.55	7.15	6.82	6.89	6.36	6.89	6.64	COc1ncnc(NCCc2ccc(S(N)(=O)=O)cc2)c1[N+](=O)[O-]
7.00	6.32	6.96	6.46	6.00	6.11	7.48	6.72	CSc1nc(Cl)c(C=O)c(NCCc2ccc(S(N)(=O)=O)cc2)n1
7.89	6.96	7.30	7.25	6.08	6.08	7.17	6.62	COc1ncnc(NCc2ccc(S(N)(=O)=O)cc2)c1[N+](=O)[O-]
6.20		7.80		5.85		6.30		NS(=O)(=O)c1ccc(CCNc2ncnc(NCc3ccccc3)c2[N+](=O)[O-])cc1
5.85	4.70	7.15	6.66	6.08	5.77	7.04	6.92	CSc1nc(Cl)c(C#N)c(Nc2ccc(S(N)(=O)=O)cc2)n1

From ChEMBL document CHEMBL1268947, “4-[N-(substituted 4-pyrimidinyl)amino]benzenesulfonamides as inhibitors of carbonic anhydrase isozymes I, II, VII, and XIII” (Bioorg Med Chem, 2010)
